Laboratory results published in ChEMBL document CHEMBL1130648, “The synthesis of a new type of anthracene DNA intercalator” (Bioorg Med Chem Lett, 1998).

System: Nucleic Acid
Test: Compound was tested for binding affinity against CT DNA.
Assay type: nucleic-acid assay
Settings: Bos taurus

## COc1cc2c(CCCN)c3cc(OC)c(OC)cc3c(CCCN)c2cc1OC
  Binding affinity: 40000 M⁻¹

## NCc1c2ccccc2cc2ccccc12
  Binding affinity: 10000 M⁻¹
